Patent US11214594B2, “Antimicrobial peptide having synergistic antibacterial effect with antibiotics on multidrug resistant bacteria, and use thereof” (priority 2016, dated 2022)
In brackets after ≈: the same amount, converted by molar mass. Read-outs that look alike come from different tables or passages of the source. Where a SMILES comes first, the peptide text is derived from it.

Legend:
[1] = system: MDRST 8007; assay: Minimal inhibitory concentration (MIC), single agent; format: cell-based, Salmonella typhimurium; details: agent alone
Procedure, shortened: (§1)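 Broth microdilution in MH medium: bacterial strains diluted to 2×10^6 CFU were mixed with equal volumes of peptide serially diluted twofold in MH medium.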

[2] = system: B. subtilis; assay: microbe, parasite or virus in culture; format: cell-based, Bacillus subtilis
Procedure, shortened: as §1

[3] = system: E. coli; assay: MIC of antibiotic during combined treatment with antimicrobial peptide; format: cell-based, Escherichia coli; details: for Antibiotic MIC, Erythromycin / Antibiotic MIC, Linezolid / Antibiotic MIC, Vancomycin: E. coli
Procedure, shortened: (§2)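 Using MH broth, we determined combination MICs by titrating the antibiotic into wells and then repeating under the reverse dilution scheme.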

[4] = system: MDRAB 12036; format: cell-based, Acinetobacter baumannii
Procedure, shortened: as §1

[5] = system: S. aureus; assay: microbe, parasite or virus in culture; format: cell-based, Staphylococcus aureus
Procedure, shortened: as §1

[6] = system: E. coli; assay: microbe, parasite or virus in culture; format: cell-based, Escherichia coli; details: 16 h
Procedure, shortened: as §1

[7] = system: MDREC 1229; assay: microbe, parasite or virus in culture; format: cell-based, Escherichia coli
Procedure, shortened: as §1

[8] = system: MDREC 1229; assay: MIC of antibiotic during combined treatment with antimicrobial peptide; format: cell-based, Escherichia coli
Procedure, shortened: (§3)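 Broth microdilution in MH medium; strains were diluted to 2×10^6 CFU per ml before plating. Peptide was serially diluted stepwise at 2:1 starting from its MIC, and MH-diluted antibiotic was then added to determine MIC. The reversed arrangement was also tested.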

[9] = system: E. coli; format: cell-based, Escherichia coli; details: E. coli
Procedure, shortened: as §3

[10] = system: MDREC 1229; format: cell-based, Escherichia coli
Procedure, shortened: as §3

[11] = system: A. baumannii; assay: MIC of antibiotic during combined treatment with antimicrobial peptide; format: cell-based, Acinetobacter baumannii; details: A. baumannii
Procedure, shortened: as §2

[12] = system: MDRAB 12035; assay: MIC of antimicrobial peptide during combined treatment with antibiotic; format: cell-based, Acinetobacter baumannii
Procedure, shortened: as §3

[13] = system: A. baumannii; assay: as above; format: cell-based, Acinetobacter baumannii
Procedure, shortened: as §3

[14] = peptide treatment concentration 1 μg/ml
[15] = peptide treatment concentration 2 μg/ml
[16] = peptide treatment concentration 4 μg/ml
[17] = peptide treatment concentration 6 μg/ml
[18] = peptide treatment concentration 8 μg/ml
[19] = peptide treatment concentration 16 μg/ml
[20] = peptide treatment concentration 32 μg/ml
[21] = peptide treatment concentration 64 μg/ml
[22] = with Erythromycin […] (Conc./MIC 1)
[23] = combined with peptide at 1 μg/ml
[24] = combined with peptide at 2 μg/ml
[25] = combined with peptide at 4 μg/ml
[26] = combined with peptide at 6 μg/ml
[27] = combined with peptide at 8 μg/ml
[28] = combined with peptide at 16 μg/ml
[29] = combined with peptide at 32 μg/ml
[30] = combined with peptide at 64 μg/ml
[31] = erythromycin 4 μg/ml (Conc./MIC 1/8)
[32] = erythromycin 8 μg/ml (Conc./MIC 1/4)
[33] = erythromycin 16 μg/ml (Conc./MIC 1/2)
[34] = erythromycin 32 μg/ml (Conc./MIC 1)
[35] = vancomycin 512 μg/ml (Conc./MIC 1/2)
[36] = vancomycin 1024 μg/ml (Conc./MIC 1)

## CC[C@H](C)[C@H](NC(=O)[C@H](CCCCN)NC(=O)[C@H](Cc1c[nH]c2ccccc12)NC(=O)[C@@H](N)CCCNC(=N)N)C(=O)N[C@@H](Cc1ccccc1)C(=O)N[C@@H](CCCCN)C(=O)N[C@@H](CCCCN)C(=O)N[C@H](C(=O)N1CCC[C@H]1C(=O)N[C@@H](CCCCN)C(=O)N[C@@H](Cc1ccccc1)C(=O)N[C@@H](CC(C)C)C(=O)N[C@@H](Cc1c[nH]cn1)C(=O)N[C@@H](CO)C(=O)N[C@@H](Cc1c[nH]c2ccccc12)C(=O)N[C@@H](CCCCN)C(=O)N[C@@H](CCCCN)C(=O)N[C@@H](Cc1c[nH]c2ccccc12)C(N)=O)[C@@H](C)CC [PapMA-4, RWK IFK KIP KFL HSW KKW-NH2] (H-RWKIFKKIPKFLHSWKKW-NH2; N-terminus assumed)
[1]
  Minimal inhibitory concentration MIC: 32 µg/mL (≈ 13 µM)
[2]
  Minimal inhibitory concentration MIC: >128 µg/mL
[3]; E. coli and MDREC1229
  Synergistic effect of antibacterial activity with existing antibiotics compared with PapMA-1: level similar to that of the PapMA-1 peptide
[3]; erythromycin combined with peptide at 1 μg/ml
  Antibiotic MIC, Erythromycin: 64 µg/mL
[3]; erythromycin combined with peptide at 2 μg/ml
  Antibiotic MIC, Erythromycin: 32 µg/mL
[3]; erythromycin combined with peptide at 4 μg/ml
  Antibiotic MIC, Erythromycin: 16 µg/mL
[3]; erythromycin combined with peptide at 6 μg/ml
  Antibiotic MIC, Erythromycin: 8 µg/mL
[3]; erythromycin combined with peptide at 8 μg/ml
  Antibiotic MIC, Erythromycin: 8 µg/mL
[3]; erythromycin combined with peptide at 16 μg/ml
  Antibiotic MIC, Erythromycin: 0 µg/mL
[3]; erythromycin combined with peptide at 32 μg/ml
  Antibiotic MIC, Erythromycin: 0 µg/mL
[3]; erythromycin combined with peptide at 64 μg/ml
  Antibiotic MIC, Erythromycin: 0 µg/mL
[3]; linezolid combined with peptide at 1 μg/ml
  Antibiotic MIC, Linezolid: 128 µg/mL
[3]; linezolid combined with peptide at 2 μg/ml
  Antibiotic MIC, Linezolid: 64 µg/mL
[3]; linezolid combined with peptide at 4 μg/ml
  Antibiotic MIC, Linezolid: 32 µg/mL
[3]; linezolid combined with peptide at 6 μg/ml
  Antibiotic MIC, Linezolid: 32 µg/mL
[3]; linezolid combined with peptide at 8 μg/ml
  Antibiotic MIC, Linezolid: 16 µg/mL
[3]; linezolid combined with peptide at 16 μg/ml
  Antibiotic MIC, Linezolid: 0 µg/mL
[3]; linezolid combined with peptide at 32 μg/ml
  Antibiotic MIC, Linezolid: 0 µg/mL
[3]; linezolid combined with peptide at 64 μg/ml
  Antibiotic MIC, Linezolid: 0 µg/mL
[3]; vancomycin combined with peptide at 1 μg/ml
  Antibiotic MIC, Vancomycin: >128 µg/mL
[3]; vancomycin combined with peptide at 2 μg/ml
  Antibiotic MIC, Vancomycin: >128 µg/mL
[3]; vancomycin combined with peptide at 4 μg/ml
  Antibiotic MIC, Vancomycin: >128 µg/mL
[3]; vancomycin combined with peptide at 6 μg/ml
  Antibiotic MIC, Vancomycin: 128 µg/mL
[3]; vancomycin combined with peptide at 8 μg/ml
  Antibiotic MIC, Vancomycin: 32 µg/mL
[3]; vancomycin combined with peptide at 16 μg/ml
  Antibiotic MIC, Vancomycin: 0 µg/mL
[3]; vancomycin combined with peptide at 32 μg/ml
  Antibiotic MIC, Vancomycin: 0 µg/mL
[3]; vancomycin combined with peptide at 64 μg/ml
  Antibiotic MIC, Vancomycin: 0 µg/mL
[4]
  Minimal inhibitory concentration MIC: 16 µg/mL (≈ 6.51 µM)
[5]
  Minimal inhibitory concentration MIC: >128 µg/mL
[6]
  Minimal inhibitory concentration MIC: 16 µg/mL (≈ 6.51 µM)
[7]
  Minimal inhibitory concentration MIC: 32 µg/mL (≈ 13 µM)
[8]; [14]
  Antibiotic MIC, Erythromycin: 64 µg/mL
  Antibiotic MIC, Linezolid: >128 µg/mL
  Antibiotic MIC, Vancomycin: >128 µg/mL
[8]; [15]
  Antibiotic MIC, Erythromycin: 32 µg/mL
  Antibiotic MIC, Linezolid: 64 µg/mL
  Antibiotic MIC, Vancomycin: >128 µg/mL
[8]; [16]
  Antibiotic MIC, Erythromycin: 16 µg/mL
  Antibiotic MIC, Linezolid: 64 µg/mL
  Antibiotic MIC, Vancomycin: >128 µg/mL
[8]; [17]
  Antibiotic MIC, Erythromycin: 16 µg/mL
  Antibiotic MIC, Linezolid: 64 µg/mL
  Antibiotic MIC, Vancomycin: >128 µg/mL
[8]; [18]
  Antibiotic MIC, Erythromycin: 4 µg/mL
  Antibiotic MIC, Linezolid: 16 µg/mL
  Antibiotic MIC, Vancomycin: 128 µg/mL
[8]; [19]
  Antibiotic MIC, Erythromycin: 0.25 µg/mL
  Antibiotic MIC, Linezolid: 4 µg/mL
  Antibiotic MIC, Vancomycin: 32 µg/mL
[8]; [20]
  Antibiotic MIC, Erythromycin: 0 µg/mL
  Antibiotic MIC, Linezolid: 0 µg/mL
  Antibiotic MIC, Vancomycin: 0 µg/mL
[8]; [21]
  Antibiotic MIC, Erythromycin: 0 µg/mL
  Antibiotic MIC, Linezolid: 0 µg/mL
  Antibiotic MIC, Vancomycin: 0 µg/mL
[9]; [22]
  Peptide MIC: 0 µg/mL
[9]; with Linezolid […] (Conc./MIC 1)
  Peptide MIC: 0 µg/mL
[9]; with Vancomycin 1024 μg/ml (Conc./MIC 1)
  Peptide MIC: 0 µg/mL
[10]; [22]
  Peptide MIC: 0 µg/mL
[10]; with Linezolid 512 μg/ml (Conc./MIC 1)
  Peptide MIC: 0 µg/mL
[11]; [23]
  Antibiotic MIC, Erythromycin: 32 µg/mL
  Antibiotic MIC, Linezolid: >128 µg/mL
  Antibiotic MIC, Vancomycin: >128 µg/mL
[11]; [24]
  Antibiotic MIC, Erythromycin: 16 µg/mL
  Antibiotic MIC, Linezolid: 64 µg/mL
  Antibiotic MIC, Vancomycin: 128 µg/mL
[11]; [25]
  Antibiotic MIC, Erythromycin: 8 µg/mL
  Antibiotic MIC, Linezolid: 64 µg/mL
  Antibiotic MIC, Vancomycin: 64 µg/mL
[11]; [26]
  Antibiotic MIC, Erythromycin: 4 µg/mL
  Antibiotic MIC, Linezolid: 32 µg/mL
  Antibiotic MIC, Vancomycin: 64 µg/mL
[11]; [27]
  Antibiotic MIC, Erythromycin: 4 µg/mL
  Antibiotic MIC, Linezolid: 16 µg/mL
  Antibiotic MIC, Vancomycin: 32 µg/mL
[11]; [28]
  Antibiotic MIC, Erythromycin: 0 µg/mL
  Antibiotic MIC, Linezolid: 0 µg/mL
  Antibiotic MIC, Vancomycin: 0 µg/mL
[11]; [29]
  Antibiotic MIC, Erythromycin: 0 µg/mL
  Antibiotic MIC, Linezolid: 0 µg/mL
  Antibiotic MIC, Vancomycin: 0 µg/mL
[11]; [30]
  Antibiotic MIC, Erythromycin: 0 µg/mL
  Antibiotic MIC, Linezolid: 0 µg/mL
  Antibiotic MIC, Vancomycin: 0 µg/mL
[12]; [31]
  Peptide MIC during treatment with erythromycin: 4 µg/mL
[12]; [32]
  Peptide MIC during treatment with erythromycin: 4 µg/mL
[12]; [33]
  Peptide MIC during treatment with erythromycin: 2 µg/mL
[12]; [34]
  Peptide MIC during treatment with erythromycin: 0 µg/mL
[12]; linezolid 64 μg/ml (Conc./MIC 1/8)
  Peptide MIC during treatment with linezolid: 4 µg/mL
[12]; linezolid 512 μg/ml (Conc./MIC 1)
  Peptide MIC during treatment with linezolid: 0 µg/mL
[12]; linezolid […] (Conc./MIC 1/2)
  Peptide MIC during treatment with linezolid: 1 µg/mL
[12]; linezolid […] (Conc./MIC 1/4)
  Peptide MIC during treatment with linezolid: 2 µg/mL
[12]; [35]
  Peptide MIC during treatment with vancomycin: 2 µg/mL
[12]; [36]
  Peptide MIC during treatment with vancomycin: 0.25 µg/mL
[12]; vancomycin […] (Conc./MIC 1/4)
  Peptide MIC during treatment with vancomycin: 2 µg/mL
[12]; vancomycin […] (Conc./MIC 1/8)
  Peptide MIC during treatment with vancomycin: 4 µg/mL
[13]; [31]
  Peptide MIC during treatment with antibiotic: 8 µg/mL
[13]; [32]
  Peptide MIC during treatment with antibiotic: 4 µg/mL
[13]; [33]
  Peptide MIC during treatment with antibiotic: 2 µg/mL
[13]; [34]
  Peptide MIC during treatment with antibiotic: 0 µg/mL
[13]; linezolid 32 μg/ml (Conc./MIC 1/8)
  Peptide MIC during treatment with antibiotic: 4 µg/mL
[13]; linezolid 64 μg/ml (Conc./MIC 1/4)
  Peptide MIC during treatment with antibiotic: 4 µg/mL
[13]; linezolid […] (Conc./MIC 1)
  Peptide MIC during treatment with antibiotic: 0 µg/mL
[13]; linezolid […] (Conc./MIC 1/2)
  Peptide MIC during treatment with antibiotic: 1 µg/mL
[13]; [35]
  Peptide MIC during treatment with antibiotic: 0.25 µg/mL
[13]; [36]
  Peptide MIC during treatment with antibiotic: 0 µg/mL
[13]; vancomycin […] (Conc./MIC 1/4)
  Peptide MIC during treatment with antibiotic: 0.25 µg/mL
[13]; vancomycin […] (Conc./MIC 1/8)
  Peptide MIC during treatment with antibiotic: 2 µg/mL
